Experimental data: US20080234368A9, “Therapeutic compositions and methods of use” (Trustees of Dartmouth College, priority 1998, published 2008)

Tests used:
[1] = system: NRP-152 non-malignant prostate epithelium cells; assay: Suppression of thymidine incorporation, dose-response (FIG. 13); format: cell-based, rat; details: NRP-152, 72 h; oleanolic acid statement at concentrations of 1 μM or less
Procedure: (§1) Inhibitors of cell proliferation are known to be useful chemopreventive and chemotherapeutic agents. CDDO was tested against a wide variety of cells derived from highly aggressive leukemias and carcinomas, as well as from non-neoplastic tissues. NRP-152 cells were grown as described in Danielpour et al., 1994. MCF-7 cells were grown in phenol red-free RPMI 1640/10% charcoal-stripped FBS with added 17-β-estradiol (10 μM). Triterpenoids were added at the time of plating, and 72 h later ^3H-thymidine (1 μCi/well) was added for the final 2 h of incubation. Incorporation of thymidine was measured after cells were precipitated with TCA (10%), washed, and solubilized. The symbols used in FIG. 13 are CDDO, ▪; TP-82, ◯; and oleanolic acid; ●.

[2] = system: MCF-7 breast carcinoma cells; assay: as above; format: cell-based, human; details: MCF-7 with 17-β-estradiol, 72 h; oleanolic acid statement at concentrations of 1 μM or less
Procedure: as §1

[3] = system: IFN-γ-induced NO production in mouse macrophages; assay: Inhibition of IFN-γ induced NO production in mouse macrophages; format: cell-based; details: Mus musculus, Macrophage; 4 ng/mL IFN-γ, 48 hours, nitrite by Griess reaction; average of two separate experiments; read-out: IC50 for Inhibition of IFN-γ-Induced NO Production in Mouse Macrophages
Procedure: The inhibitory activities of these compounds and dexamethasone on IFN-γ induced NO production in mouse macrophages is shown below in Table 1. The following procedure for the assay ws used. Macrophages were harvested from female mice injected intraperitoneally four days previously with 4% thioglycollate. These cells were seeded in 96-well tissue culture plates and incubated with 4 ng/mL IFN-γ in the presence or absence of inhibitory test compounds. After 48 hours NO production (measured as nitrite by the Griess reaction) was determined. Full details of the assay are given in Ding et al., 1990; Bogdan et al., 1992.

[4] = system: LCDB acute myelogenous leukemia cell line; assay: Monocytic differentiation, α-naphthyl acetate esterase staining; format: cell-based, human; details: TGF-β1 2.5 ng/ml, 48 h
Procedure: CDDO induces monocytic differentiation in the poorly differentiated LCDB acute myelogenous leukemia cell line, derived from a chemotherapy-resistant patient at the NCI Pediatric Oncology Branch. FIG. 11 illustrates LCDB cells seeded in RPMI 1640/2% FBS, either alone (11A), with 2.5 ng/ml TGF-β1 (11B), with 10^−8 M CDDO (11C), or with both TGF-β1 and CDDO (11D). After 48 h, cytospin slide preparations were made and stained for α-naphthyl acetate esterase activity (kit from Sigma). PC12 cells were cultured for 5 days in gridded dishes in DMEM/10% FBS and 5% horse serum (Smith et al., 1997), either alone (11E), with 100 ng/ml 7S NGF (11F), with 10^−6 M CDDO (11G), or with both NGF and CDDO (11H). […] Methods for quantitative image analysis of size of cells and neurites have been described (De 1a Torre et al., 1997). Control cells in FIG. 11E are approximately 10 μm in diameter. 3T3-L1 cells were grown to confluency in DMEM/5% calf serum, and then treated once with CDDO in DMEM/10% FBS (FIG. 12A) or with CDDO and/or LG100268 in DMEM/10% FBS (FIG. 12B). Every two days thereafter, medium was changed to DMEM/10% FBS, without added CDD0 or LG100268. Cells were harvested on day 8 (FIG. 12A) or day 6 (FIG. 12B), and GPDH was measured in lysates, using a standard assay for consumption of NADH at 340 nm (Wise and Green, 1979).

IC50 [3] [nM]	Molecule	suppressing thymidine incorporation [1]	suppressing thymidine incorporation [2]	induction of α-naphthyl esterase activity (monocytic differentiation) [4]
	3,11-dioxoolean-1,9-dien-28oic acid [TP-82]	markedly less active	markedly less active	
1	C[C@@H]1C[C@H]2[C@@H]3CCC4=CC(=O)C=C[C@]4(C)[C@@]3(F)[C@@H](O)C[C@]2(C)[C@@]1(O)C(=O)CO [dexamethasone, reference compound]			
	CC1(C)CC[C@]2(C(=O)O)CC[C@]3(C)C(=CC[C@@H]4[C@@]5(C)CC[C@H](O)C(C)(C)[C@@H]5CC[C@]43C)[C@@H]2C1 [oleanolic acid, reference compound]	virtually without activity	virtually without activity	
	TGF-01: transforming growth factor-β1			induced x-naphthyl esterase activity
